This is an account of results in ChEMBL document CHEMBL1144455, “A small molecule-kinase interaction map for clinical kinase inhibitors” (Nat Biotechnol, 2005).

The target of assay [1] is Tyrosine-protein kinase Yes (Homo sapiens, UniProt P07947).
The target of a further assay is Activated CDC42 kinase 1 (Homo sapiens, UniProt Q07912).
Assay [2] deals with T1, Membrane-associated tyrosine- and threonine-specific cdc2-inhibitory kinase (Homo sapiens, UniProt Q99640).
T1 sequence (Q99640 whole entry): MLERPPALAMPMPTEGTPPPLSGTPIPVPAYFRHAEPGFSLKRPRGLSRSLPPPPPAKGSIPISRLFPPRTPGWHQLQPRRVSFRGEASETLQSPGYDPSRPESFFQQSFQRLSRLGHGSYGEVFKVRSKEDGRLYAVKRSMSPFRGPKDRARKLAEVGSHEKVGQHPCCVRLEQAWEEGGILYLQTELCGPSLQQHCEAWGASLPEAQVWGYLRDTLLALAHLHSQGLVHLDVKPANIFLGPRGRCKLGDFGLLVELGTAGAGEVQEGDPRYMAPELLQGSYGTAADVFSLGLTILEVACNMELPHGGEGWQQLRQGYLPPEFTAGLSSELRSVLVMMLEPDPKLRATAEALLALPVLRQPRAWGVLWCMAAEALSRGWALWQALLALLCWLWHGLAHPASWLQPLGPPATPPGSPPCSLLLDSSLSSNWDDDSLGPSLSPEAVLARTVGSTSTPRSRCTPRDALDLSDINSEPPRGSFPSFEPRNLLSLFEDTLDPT

Assay [3] has as its target Calcium/calmodulin-dependent protein kinase kinase 2 (Homo sapiens, UniProt Q96RR4).
The next assay deals with T2, Aurora kinase C (Homo sapiens, UniProt Q9UQB9).
T2 sequence (Q9UQB9 whole entry): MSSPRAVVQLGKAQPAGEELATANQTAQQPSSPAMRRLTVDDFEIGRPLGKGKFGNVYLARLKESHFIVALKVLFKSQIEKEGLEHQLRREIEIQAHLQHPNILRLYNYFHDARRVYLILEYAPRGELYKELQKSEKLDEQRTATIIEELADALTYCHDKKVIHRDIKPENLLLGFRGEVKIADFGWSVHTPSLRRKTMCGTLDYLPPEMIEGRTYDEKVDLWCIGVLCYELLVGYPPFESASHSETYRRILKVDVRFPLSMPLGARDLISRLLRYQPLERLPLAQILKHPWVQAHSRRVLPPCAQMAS

Assay [4] addresses Death-associated protein kinase 2 (Homo sapiens, UniProt Q9UIK4).
For assay [5], the target named is Death-associated protein kinase 3 (Homo sapiens, UniProt O43293).
Chain of Death-associated protein kinase 3 (O43293 whole entry): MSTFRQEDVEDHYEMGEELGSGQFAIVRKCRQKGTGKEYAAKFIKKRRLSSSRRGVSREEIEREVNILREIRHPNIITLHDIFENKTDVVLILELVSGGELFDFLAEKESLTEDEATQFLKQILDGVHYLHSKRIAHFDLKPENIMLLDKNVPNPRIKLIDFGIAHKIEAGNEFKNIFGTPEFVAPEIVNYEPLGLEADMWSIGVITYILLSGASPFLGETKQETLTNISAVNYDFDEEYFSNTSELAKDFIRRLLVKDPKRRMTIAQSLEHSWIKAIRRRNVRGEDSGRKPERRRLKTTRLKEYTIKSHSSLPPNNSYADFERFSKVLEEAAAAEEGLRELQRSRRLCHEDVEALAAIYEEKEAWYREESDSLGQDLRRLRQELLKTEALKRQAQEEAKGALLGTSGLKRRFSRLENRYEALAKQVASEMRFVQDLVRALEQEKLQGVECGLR

Chain of Calcium/calmodulin-dependent protein kinase kinase 2 (Q96RR4 whole entry): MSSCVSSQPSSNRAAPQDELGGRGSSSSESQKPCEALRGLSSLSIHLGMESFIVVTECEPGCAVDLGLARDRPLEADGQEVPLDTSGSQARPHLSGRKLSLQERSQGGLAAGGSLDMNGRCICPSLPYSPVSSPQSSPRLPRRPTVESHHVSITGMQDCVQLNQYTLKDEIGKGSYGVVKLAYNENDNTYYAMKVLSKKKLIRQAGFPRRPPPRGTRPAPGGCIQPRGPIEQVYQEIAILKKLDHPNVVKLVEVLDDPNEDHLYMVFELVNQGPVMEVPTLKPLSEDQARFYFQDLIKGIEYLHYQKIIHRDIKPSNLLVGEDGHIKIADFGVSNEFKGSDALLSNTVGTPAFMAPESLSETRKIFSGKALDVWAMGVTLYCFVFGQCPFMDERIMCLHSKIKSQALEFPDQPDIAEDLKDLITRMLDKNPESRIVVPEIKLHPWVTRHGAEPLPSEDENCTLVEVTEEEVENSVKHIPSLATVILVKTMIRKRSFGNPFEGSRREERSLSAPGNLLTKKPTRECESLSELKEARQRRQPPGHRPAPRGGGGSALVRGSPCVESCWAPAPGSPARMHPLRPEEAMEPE
Chain of Activated CDC42 kinase 1 (Q07912 whole entry): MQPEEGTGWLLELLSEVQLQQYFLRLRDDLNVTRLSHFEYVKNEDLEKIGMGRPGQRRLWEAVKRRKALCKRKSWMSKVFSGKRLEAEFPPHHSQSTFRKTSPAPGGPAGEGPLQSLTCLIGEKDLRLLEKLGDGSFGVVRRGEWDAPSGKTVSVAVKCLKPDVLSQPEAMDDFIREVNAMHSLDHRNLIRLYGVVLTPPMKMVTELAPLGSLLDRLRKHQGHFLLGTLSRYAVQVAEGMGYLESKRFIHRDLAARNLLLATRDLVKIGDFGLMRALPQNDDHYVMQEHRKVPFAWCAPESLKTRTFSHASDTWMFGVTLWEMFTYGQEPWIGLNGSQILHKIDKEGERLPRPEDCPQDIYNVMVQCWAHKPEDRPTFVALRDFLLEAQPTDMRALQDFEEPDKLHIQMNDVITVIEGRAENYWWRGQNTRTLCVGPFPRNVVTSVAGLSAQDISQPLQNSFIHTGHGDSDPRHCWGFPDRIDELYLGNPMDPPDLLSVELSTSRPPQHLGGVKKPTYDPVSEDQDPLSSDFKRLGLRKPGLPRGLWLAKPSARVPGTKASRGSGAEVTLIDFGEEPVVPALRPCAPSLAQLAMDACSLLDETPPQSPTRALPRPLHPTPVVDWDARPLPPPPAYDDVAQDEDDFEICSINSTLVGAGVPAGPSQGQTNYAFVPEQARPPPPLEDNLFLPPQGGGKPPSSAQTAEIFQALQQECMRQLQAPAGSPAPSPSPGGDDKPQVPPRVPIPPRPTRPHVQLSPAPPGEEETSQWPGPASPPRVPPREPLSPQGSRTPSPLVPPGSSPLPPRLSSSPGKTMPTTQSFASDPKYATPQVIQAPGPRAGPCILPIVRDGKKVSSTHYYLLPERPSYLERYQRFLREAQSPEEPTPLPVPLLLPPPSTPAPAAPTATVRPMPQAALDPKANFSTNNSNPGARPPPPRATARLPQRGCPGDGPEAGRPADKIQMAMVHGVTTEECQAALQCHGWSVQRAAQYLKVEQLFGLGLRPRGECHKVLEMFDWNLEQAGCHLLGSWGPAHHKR
Chain of Death-associated protein kinase 2 (Q9UIK4 whole entry): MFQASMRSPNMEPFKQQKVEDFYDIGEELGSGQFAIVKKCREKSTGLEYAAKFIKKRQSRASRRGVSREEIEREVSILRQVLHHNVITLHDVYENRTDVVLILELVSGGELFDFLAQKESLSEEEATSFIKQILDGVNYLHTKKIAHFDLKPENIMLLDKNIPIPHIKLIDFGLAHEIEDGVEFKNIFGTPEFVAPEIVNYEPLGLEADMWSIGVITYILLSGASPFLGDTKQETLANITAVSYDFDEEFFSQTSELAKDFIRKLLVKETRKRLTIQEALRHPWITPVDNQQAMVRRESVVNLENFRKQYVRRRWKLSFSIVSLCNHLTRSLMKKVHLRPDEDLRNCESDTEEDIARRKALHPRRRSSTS
Chain of Tyrosine-protein kinase Yes (P07947 whole entry): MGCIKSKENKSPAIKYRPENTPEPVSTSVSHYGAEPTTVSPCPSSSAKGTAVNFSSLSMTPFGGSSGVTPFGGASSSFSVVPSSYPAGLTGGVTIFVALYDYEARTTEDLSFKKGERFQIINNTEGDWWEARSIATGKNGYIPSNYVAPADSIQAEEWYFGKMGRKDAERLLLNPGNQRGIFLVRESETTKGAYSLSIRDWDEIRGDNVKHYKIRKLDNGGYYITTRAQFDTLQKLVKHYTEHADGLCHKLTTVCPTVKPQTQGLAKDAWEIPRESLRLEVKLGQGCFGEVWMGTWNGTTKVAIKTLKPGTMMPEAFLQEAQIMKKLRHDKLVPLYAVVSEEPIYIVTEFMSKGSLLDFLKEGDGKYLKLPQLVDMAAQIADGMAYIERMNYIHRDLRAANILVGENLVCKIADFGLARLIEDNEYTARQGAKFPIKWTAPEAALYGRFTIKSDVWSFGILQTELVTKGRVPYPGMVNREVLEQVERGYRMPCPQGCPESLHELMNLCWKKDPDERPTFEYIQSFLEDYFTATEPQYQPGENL

On to `CCOc1cc2ncc(C#N)c(Nc3ccc(F)c(Cl)c3)c2cc1NC(=O)/C=C/CN(C)C` [PELITINIB], for which the equilibrium dissociation constant (Kd) in assay [1] is 840 nM; at Activated CDC42 kinase 1 it was 890 nM; in assay [2], 930 nM.

As to `Oc1c2ccccc2c2c3c(cccc13)N=N2` [SP-600125], the dissociation constant (Kd) was 7500 nM in assay [3], 5300 nM at Aurora kinase C, 610 nM in assay [4] and 410 nM in assay [5].

As usually defined, the Kd is the constant that tells how readily two partners part at equilibrium.
